Source: US20250136596A1, “MEMBRANE-ASSOCIATED TYROSINE- AND THREONINE-SPECIFIC CDC2-INHIBITORY KINASE (PKMYT1) INHIBITORS AND USES THEREOF” (Insilico Medicine IP Limited, priority 2022, published 2025)

Biological target: PKMYT1 (Homo sapiens (Human), UniProt Q99640)
Test: PKMYT1 HTRF Assay
Type: binding
Conditions: Tracer 178, GST-Tb; compound 10 μM to 0.5 nM; read-out: MYT1 HTRF IC50
Outline: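 Compound (final 10 μM to 0.5 nM) preincubated with PKMYT1 enzyme 15 min at 25° C, then Tracer 178 added for 60 min at 25° C. GST-Tb added, 15 min at 25° C, before HTRF readout.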

PKMYT1, sequence (Q99640 whole entry): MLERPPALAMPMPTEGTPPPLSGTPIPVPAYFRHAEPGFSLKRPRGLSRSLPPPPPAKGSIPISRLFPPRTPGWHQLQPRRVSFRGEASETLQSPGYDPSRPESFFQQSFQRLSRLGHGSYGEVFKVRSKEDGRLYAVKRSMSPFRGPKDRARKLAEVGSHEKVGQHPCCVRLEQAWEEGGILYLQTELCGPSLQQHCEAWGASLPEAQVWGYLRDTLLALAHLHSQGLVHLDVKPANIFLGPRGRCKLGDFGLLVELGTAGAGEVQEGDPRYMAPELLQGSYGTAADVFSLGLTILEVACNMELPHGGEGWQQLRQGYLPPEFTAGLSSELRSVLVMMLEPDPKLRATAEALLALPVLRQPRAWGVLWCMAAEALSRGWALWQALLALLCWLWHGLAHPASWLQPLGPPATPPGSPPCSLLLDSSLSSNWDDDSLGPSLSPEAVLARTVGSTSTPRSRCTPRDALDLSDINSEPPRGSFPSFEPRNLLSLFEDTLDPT

Cc1ccc(O)c(C)c1-c1cnc2[nH]c(-c3cnc[nH]3)cc2c1C#N [Example 125, (S)-5-(3-hydroxy-2,6-dimethylphenyl)-2-(1H-imidazol-5-yl)-1H-pyrrolo[2,3-b]pyridine-4-carbonitrile]
IC50: < 10 nM

Cc1ccc(O)c(C)c1-c1cnc2[nH]c(-c3cnc(N)s3)cc2c1C#N [Example 126, (S)-2-(2-aminothiazol-5-yl)-5-(3-hydroxy-2,6-dimethylphenyl)-1H-pyrrolo[2,3-b]pyridine-4-carbonitrile]
IC50: < 10 nM

Cc1ccc(O)c(C)c1-c1cnc2[nH]c(-c3cnc(N)nn3)cc2c1C#N [Example 127, (S)-2-(3-amino-1,2,4-triazin-6-yl)-5-(3-hydroxy-2,6-dimethylphenyl)-1H-pyrrolo[2,3-b]pyridine-4-carbonitrile]
IC50: < 10 nM

Cc1ccc(O)c(C)c1-c1cnc2[nH]c(-c3cnc(N4C[C@@H]5C[C@H]4CO5)nc3)cc2n1 [Example 128, 3-(6-(2-((1S,4S)-2-oxa-5-azabicyclo[2.2.1]heptan-5-yl)pyrimidin-5-yl)-5H-pyrrolo[2,3-b]pyrazin-2-yl)-2,4-dimethylphenol]
IC50: < 10 nM

Cc1ccc(O)c(C)c1-c1cnc2[nH]c(-c3cnc(CN)nc3)cc2c1C#N [Example 129, (S)-2-(2-(aminomethyl)pyrimidin-5-yl)-5-(3-hydroxy-2,6-dimethylphenyl)-1H-pyrrolo[2,3-b]pyridine-4-carbonitrile]
IC50: < 10 nM

Cc1ccc(O)c(C)c1-c1cnc2[nH]c(-c3cnc(N)c(C#N)c3)cc2c1C#N [Example 130, (S)-2-(6-amino-5-cyanopyridin-3-yl)-5-(3-hydroxy-2,6-dimethylphenyl)-1H-pyrrolo[2,3-b]pyridine-4-carbonitrile]
IC50: < 10 nM

Cc1ccc(O)c(C)c1-c1cnc2[nH]c(-c3cnn(CCCO)c3)cc2c1C#N [Example 131, (S)-5-(3-hydroxy-2,6-dimethylphenyl)-2-(1-(3-hydroxypropyl)-1H-pyrazol-4-yl)-1H-pyrrolo[2,3-b]pyridine-4-carbonitrile]
IC50: < 10 nM

Cc1ccc(O)c(C)c1-c1cnc2[nH]c(-n3cc(N)cn3)cc2c1C#N [Example 133, (S)-2-(4-amino-1H-pyrazol-1-yl)-5-(3-hydroxy-2,6-dimethylphenyl)-1H-pyrrolo[2,3-b]pyridine-4-carbonitrile]
IC50: < 10 nM

Cc1ccc(O)c(C)c1-c1cnc2[nH]c(-c3cn[nH]c(=O)c3)cc2c1C#N [Example 134]
IC50: < 10 nM

Cc1ccc(O)c(C)c1-c1cnc2[nH]c(-c3nnc[nH]3)cc2c1C#N [Example 135, 5-(3-hydroxy-2,6-dimethylphenyl)-2-(4H-1,2,4-triazol-3-yl)-1H-pyrrolo[2,3-b]pyridine-4-carbonitrile]
IC50: < 10 nM
